Patent US8772499B2, “TRPV3 modulators” (AbbVie Inc., priority 2011, dated 2014)
Like-named read-outs stand apart in the source and are kept apart here.

Tests used:
[1] = In vitro human microsomal stability assay; format: in vitro ADME
Method in brief: (§1)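 NADPH-fortified liver microsome incubations at 37° C. served for both species: Sprague-Dawley rat and human.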

human TRPV3 = target: T1, human TRPV3 (Homo sapiens, UniProt Q8NET8); experiment: In vitro antagonism of recombinant human TRPV3 activation (FLIPR Tetra calcium assay); format: cell-based; details: HEK293 cells stably expressing human TRPV3, agonist 2-APB at 80 μM
T1 construct: expressed in transfected cells
T1 sequence (Q8NET8 1-790): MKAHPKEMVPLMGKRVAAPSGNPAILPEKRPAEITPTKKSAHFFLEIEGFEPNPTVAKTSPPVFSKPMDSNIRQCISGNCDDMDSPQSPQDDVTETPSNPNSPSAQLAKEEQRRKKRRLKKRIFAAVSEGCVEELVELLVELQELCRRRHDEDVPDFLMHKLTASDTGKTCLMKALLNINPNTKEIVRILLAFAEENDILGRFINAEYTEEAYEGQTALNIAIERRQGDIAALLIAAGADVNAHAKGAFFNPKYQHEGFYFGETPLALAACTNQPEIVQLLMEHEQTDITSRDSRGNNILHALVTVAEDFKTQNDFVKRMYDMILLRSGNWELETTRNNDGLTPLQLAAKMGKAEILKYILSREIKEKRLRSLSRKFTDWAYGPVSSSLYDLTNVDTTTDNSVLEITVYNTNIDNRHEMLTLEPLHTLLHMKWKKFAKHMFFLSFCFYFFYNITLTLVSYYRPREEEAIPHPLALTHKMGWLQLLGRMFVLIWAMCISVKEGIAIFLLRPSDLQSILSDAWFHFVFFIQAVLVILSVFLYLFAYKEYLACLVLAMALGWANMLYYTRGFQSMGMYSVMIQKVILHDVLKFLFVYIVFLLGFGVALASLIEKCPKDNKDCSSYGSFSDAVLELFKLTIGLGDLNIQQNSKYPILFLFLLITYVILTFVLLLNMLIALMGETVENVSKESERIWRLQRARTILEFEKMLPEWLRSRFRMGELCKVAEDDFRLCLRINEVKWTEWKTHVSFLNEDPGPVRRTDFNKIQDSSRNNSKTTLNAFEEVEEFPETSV
Method in brief: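 HEK293 cells stably expressing human TRPV3, loaded with Calcium-4 dye for 90–120 min, received compound in DPBS, then 80 μM 2-APB (EC80) 3 min later. Max-minus-min fluorescence expressed as % of 2-APB response without antagonist; IC50 values mostly averages of n≥2 runs.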

[2] = In vitro rat microsomal stability assay; format: in vitro ADME, rat (Sprague-Dawley)
Method in brief: as §1

[3] = human, microsomes, 0.5 h, 0.5 μM, pH 7.4
[4] = actual measured value shown parenthetically, in most cases average of at least two runs, read-out: IC50
[5] = Sprague-Dawley, rat, microsomes, 0.5 h, 0.5 μM, pH 7.4
[6] = human liver microsomes, 0.5 μM substrate, 0.25 mg/mL microsomal protein, pH 7.4, 37° C., NADPH, 30 minutes
[7] = reported range, read-out: IC50 (range class)
[8] = rat liver microsomes (Sprague-Dawley), 0.5 μM substrate, 0.25 mg/mL microsomal protein, pH 7.4, 37° C., NADPH, 30 minutes

SMILES | HUMAN MICROSOMAL STABILITY (% REMAINING AFTER 30 MINUTES) [1, 3] [%] | IC50 (human TRPV3; [4]) [nM] | RAT MICROSOMAL STABILITY (% REMAINING AFTER 30 MINUTES) [2, 5] [%] | HUMAN MICROSOMAL STABILITY (% REMAINING AFTER 30 MINUTES) [1, 6] [%] | IC50 (human TRPV3; [7]) [nM] | RAT MICROSOMAL STABILITY (% REMAINING AFTER 30 MINUTES) [2, 8] [%]
Cc1cccc(C2(C(O)c3ccccn3)CCCO2)c1 (centres unmarked) [Example 91, [2-(3-methylphenyl)tetrahydrofuran-2-yl](pyridin-2-yl)methanol] | 46 | 330 | 1.0 |  |  | 
OC(c1ccccn1)C1(c2ccccc2F)CCCO1 (centres unmarked) [Example 102] |  | > 20000 |  | 45 | > 20000 | 0.55
OC(c1ccccn1)C1(c2ccccc2F)CCCO1 (stereo not drawn) [Example 103, (syn)-[2-(2-fluorophenyl)tetrahydrofuran-2-yl](pyridin-2-yl)methanol] | 73 | 2000 | 0.012 |  |  | 
OC(c1ccccn1)C1(c2cncc(C(F)(F)F)c2)CCC1 (centres unmarked) [Example 110, pyridin-2-yl{1-[5-(trifluoromethyl)pyridin-3-yl]cyclobutyl}methanol] | 8.0 | 500 | 2.8 |  |  | 
Cl.O[C@H](c1ccccn1)C1(c2ccc(Cl)c(Cl)c2)CC(F)(F)C1 [Example 111, (S)-[1-(3,4-dichlorophenyl)-3,3-difluorocyclobutyl](pyridin-2-yl)methanol hydrochloride] |  | 190 |  | 52 |  | 23
OC(c1ccccn1)C1(c2ccc(OC(F)(F)F)cc2)CC(F)(F)C1 (centres unmarked) [Example 112, {3,3-difluoro-1-[4-(trifluoromethoxy)phenyl]cyclobutyl}(pyridin-2-yl)-methanol] | 75 | 300 | 75 |  |  | 
OC(c1ccccn1)C1(c2cccc(C(F)(F)F)c2)CC(F)(F)C1 (centres unmarked) [Example 113, {3,3-difluoro-1-[3-(trifluoromethyl)phenyl]cyclobutyl}(pyridin-2-yl)-methanol] | 24 | 260 | 18 |  |  | 
OC(c1ccccn1)C1(c2cccc(OC(F)(F)F)c2)CC(F)(F)C1 (centres unmarked) [Example 114, {3,3-difluoro-1-[3-(trifluoromethoxy)phenyl]cyclobutyl}(pyridin-2-yl)-methanol] | 6.9 | 230 | 11 |  |  | 
OC(c1ccccn1)C1(c2ccc(C(F)(F)F)cn2)CCC1 (centres unmarked) [Example 115, pyridin-2-yl{1-[5-(trifluoromethyl)pyridin-2-yl]cyclobutyl}methanol] | >85 | 19400 | 81 |  |  | 
OC(c1ccccn1)C1(c2cc(C(F)(F)F)ccn2)CCC1 (centres unmarked) [Example 116, pyridin-2-yl{1-[4-(trifluoromethyl)pyridin-2-yl]cyclobutyl}methanol] | 37 | 750 | 25 |  |  | 
O=C1CC(c2ccc(Cl)c(Cl)c2)([C@H](O)c2ccccn2)C1 [Example 117, 3-(3,4-dichlorophenyl)-3-[(S)-hydroxy(pyridin-2-yl)methyl]cyclobutanone] | 18 | 2420 | 50 |  |  | 
Nc1cccnc1C(O)C1(c2cccc(C(F)(F)F)c2)CCC1 (centres unmarked) [Example 120, (3-aminopyridin-2-yl) {1-[3-(trifluoromethyl)phenyl]cyclobutyl}methanol] | 1.6 | > 20000 | <0.01 |  | > 20000 | 
Nc1cccnc1C(O)C1(c2ccc(OC(F)(F)F)cc2)CCC1 (centres unmarked) [Example 121, (3-aminopyridin-2-yl) {1-[4-(trifluoromethoxy)phenyl]cyclobutyl}methanol] | 41 | > 20000 | 0.18 |  | > 20000 | 
O[C@@H](c1ccccn1)C1(c2cc(C(F)(F)F)ccn2)CCC1 [Example 122, (R)-pyridin-2-yl{1-[4-(trifluoromethyl)pyridin-2-yl]cyclobutyl}methanol] | 28 | > 20000 | 26 |  | > 20000 | 
O[C@H](c1ccccn1)C1(c2cc(C(F)(F)F)ccn2)CCC1 [Example 123, (S)-pyridin-2-yl{1-[4-(trifluoromethyl)pyridin-2-yl]cyclobutyl}methanol] | 21 | 390 | 11 |  |  | 
Nc1cccnc1C(O)C1(c2cccc(OC(F)(F)F)c2)CCC1 (centres unmarked) [Example 124, (3-aminopyridin-2-yl) {1-[3-(trifluoromethoxy)phenyl]cyclobutyl}methanol] | 1.6 | > 20000 | <0.01 |  | > 20000 | 
O[C@@H](c1ccccn1)C1(c2cc(C(F)(F)F)ccn2)CC(F)(F)C1 [Example 125, (R)-{3,3-difluoro-1-[4-(trifluoromethyl)pyridin-2-yl]cyclobutyl}(pyridin-2-yl)-methanol] | 53 | 18600 | 8.8 |  |  | 
O[C@H](c1ccccn1)C1(c2cc(C(F)(F)F)ccn2)CC(F)(F)C1 [Example 126, (S)-{3,3-difluoro-1-[4-(trifluoromethyl)pyridin-2-yl]cyclobutyl}(pyridin-2-yl)methanol] | 21 | 820 | 7.7 |  |  | 
Nc1cccnc1C(O)C1(c2ccc(C(F)(F)F)cc2)CCC1 (centres unmarked) [Example 127, (3-aminopyridin-2-yl) {1-[4-(trifluoromethyl)phenyl]cyclobutyl}methanol] | 51 | 11600 | 1.1 |  |  | 
COC1(OC)CC(c2ccc(OC(F)(F)F)cc2)(C(O)c2ccccn2)C1 (centres unmarked) [Example 129, {3,3-dimethoxy-1-[4-(trifluoromethoxy)phenyl]cyclobutyl}(pyridin-2-yl)-methanol] | 46 | 330 | 0.01 |  |  | 
Nc1cccnc1C(O)C1(c2ccc(Cl)c(Cl)c2)CCC1 (centres unmarked) [Example 130, (3-aminopyridin-2-yl)[1-(3,4-dichlorophenyl)cyclobutyl]methanol] | 4.0 | 3110 | <0.01 |  |  | 
OC(c1ccccn1)C1(c2ccc(C(F)(F)F)cc2)CC(F)(F)C1 (centres unmarked) [Example 133, {3,3-difluoro-1-[4-(trifluoromethyl)phenyl]cyclobutyl}(pyridin-2-yl)-methanol] | 73 | 120 | 61 |  |  | 
